Data as given in patent publication US12577245B2, “Sulfonyl benzamide derivatives as Bcl-2 inhibitors” (ASCENTAGE PHARMA (SUZHOU) CO., LTD., priority 2021, dated 2026).

Molecular target: Bcl-2 G101V (Homo sapiens, UniProt P10415, G101V)
Assay: Bcl-2 G101V inhibition, fluorescence polarization (Flu-BIM tracer) binding assay
Conditions: FP; 20 nM Bcl2, 5 nM Flu-BIM, 1 h incubation; read-out: Bcl-2 G101V (FP)

| Structure (SMILES) | IC50 |
| --- | --- |
| Cc1sc(C2=C(CN3CCN(c4ccc(C(=O)NS(=O)(=O)c5ccc(NC[C@H]6CC[C@](C)(O)CC6)c([N+](=O)[O-])c5)c(Oc5cnc6[nH]ccc6c5)c4)CC3)CCC(C)(C)C2)cc1-c1c(F)cc(C(C)(C)O)cc1F [Example 81, 2-((1H-pyrrolo[2,3-b]pyridin-5-yl)oxy)-4-(4-((2-(4-(2,6-difluoro-4-(2-hydroxypropan-2-yl)phenyl)-5-methylthiophen-2-yl)-4,4-dimethylcyclohex-1-en-1-yl)methyl)piperazin-1-yl)-N-((4-((((1r,4r)-4-hydroxy-4-methylcyclohexyl)methyl)amino)-3-nitrophenyl)sulfonyl)benzamide] | 103 nM |
| CC1(C)CCC(CN2CCN(c3ccc(C(=O)NS(=O)(=O)c4ccc(NC[C@H]5CC[C@](C)(O)CC5)c([N+](=O)[O-])c4)c(Oc4cnc5[nH]ccc5c4)c3)CC2)=C(c2cc(-c3c(F)cc(C(C)(C)C(=O)O)cc3F)cs2)C1 [Example 82, 2-(4-(5-(2-((4-(3-((1H-pyrrolo[2,3-b]pyridin-5-yl)oxy)-4-(((4-((((1r,4r)-4-hydroxy-4-methylcyclohexyl)methyl)amino)-3-nitrophenyl)sulfonyl)carbamoyl)phenyl)piperazin-1-yl)methyl)-5,5-dimethylcyclohex-1-en-1-yl)thiophen-3-yl)-3,5-difluorophenyl)-2-methylpropanoic acid] | 22.3 nM |
